The values below come from patent US12559529B2, “NPY2 receptor agonists” (Boehringer Ingelheim International GmbH, priority 2019, dated 2026).

This assay deals with T1, Human Neuropeptide Y2 Receptor (Homo sapiens, UniProt P49146).
T1 construct: purchased CHEMICON HTS066M
T1 sequence (P49146 1-381): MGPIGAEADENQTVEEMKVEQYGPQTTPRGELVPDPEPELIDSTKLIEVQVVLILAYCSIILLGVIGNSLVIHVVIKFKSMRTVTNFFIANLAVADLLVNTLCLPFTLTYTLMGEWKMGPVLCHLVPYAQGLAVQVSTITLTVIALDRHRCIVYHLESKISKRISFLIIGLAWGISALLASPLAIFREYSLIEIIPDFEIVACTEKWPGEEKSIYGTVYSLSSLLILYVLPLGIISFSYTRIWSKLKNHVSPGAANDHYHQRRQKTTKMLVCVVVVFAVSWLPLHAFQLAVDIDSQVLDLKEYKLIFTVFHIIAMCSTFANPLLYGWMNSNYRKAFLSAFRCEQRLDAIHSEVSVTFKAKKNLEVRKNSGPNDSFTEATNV
Briefly: Radioligand binding competition assay (RLB). The note with it: Table 3; human 125I-PYY (1-36) 0.02 nM, Y2 receptor membranes; read-out: Ki. In outline:
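Membranes (0.5 μg/well) and test peptides, serially diluted from 1 mM DMSO stocks, were incubated 2 hours at room temperature in HEPES buffer pH 7.4 with Mg, Ca and ovalbumin.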

With `CC[C@H](C)[C@H](NC(=O)[C@H](CCC(=O)O)NC(=O)[C@H](CCC(=O)O)NC(=O)[C@@H]1CCCN1C(=O)[C@H](CO)NC(=O)[C@H](CO)NC(=O)[C@H](CC(=O)O)NC(=O)[C@H](CCC(=O)O)NC(=O)[C@H](CCC(=O)O)NC(=O)[C@@H]1CCCN1C(=O)[C@H](CCCCNC(=O)COCCOCCNC(=O)COCCOCCNC(=O)CC[C@H](NC(=O)CCCCCCCCCCCCCCCCC(=O)O)C(=O)O)NC(=O)[C@H](CCC(=O)O)NC(=O)[C@@H]1CCCN1C(=O)[C@H](C)NC(=O)CC(C)C)C(=O)N[C@@H](CCC(N)=O)C(=O)N[C@@H](CCCNC(=N)N)C(=O)N[C@@H](Cc1ccc(O)cc1)C(=O)N[C@@H](Cc1ccc(O)cc1)C(=O)N[C@H](C(=O)N[C@@H](CO)C(=O)N[C@@H](CC(C)C)C(=O)N[C@@H](CCCNC(=N)N)C(=O)N[C@@H](Cc1c[nH]cn1)C(=O)N[C@@H](Cc1ccc(O)cc1)C(=O)N[C@@H](Cc1ccc(O)cc1)C(=O)N[C@@H](CC(N)=O)C(=O)N[C@@H](Cc1c[nH]c2ccccc12)C(=O)N[C@@H](CC(C)C)C(=O)N[C@H](C(=O)N[C@@H](CCCNC(=N)N)C(=O)N[C@@H](CCC(N)=O)C(=O)N[C@@H](CCCNC(=N)N)C(=O)N[C@@H](Cc1ccc(O)cc1)C(N)=O)[C@@H](C)O)C(C)C` [Compound 145, N{alpha-4}-(3-methylbutanoyl)-N{epsilon-7}-[2-(2-{2-[2-(2-{2-[(4S)-4-carboxy-4-(17-carboxyheptadecanamido)butanamido]ethoxy}ethoxy)acetamido]ethoxy}ethoxy)acetamido]-[4A,7K,9E,12S,17I,18Q,22V,28Y,30W,31L]hPYY (4-36)], the Ki (commonly the dissociation constant of the complex between target and ligand, obtained from inhibition or displacement) was 1.55 nM.

As to `CC(C)CC(=O)N[C@@H](C)C(=O)N1CCC[C@H]1C(=O)N[C@@H](C)C(=O)N[C@@H](CCCCNC(=O)COCCOCCNC(=O)COCCOCCNC(=O)CC[C@H](NC(=O)CCCCCCCCCCCCCCCCC(=O)O)C(=O)O)C(=O)N1CCC[C@H]1C(=O)N[C@@H](CCC(=O)O)C(=O)N[C@@H](CCC(=O)O)C(=O)N[C@@H](CC(=O)O)C(=O)N[C@@H](C)C(=O)N[C@@H](CO)C(=O)N1CCC[C@H]1C(=O)N[C@@H](CCC(=O)O)C(=O)N[C@@H](CCC(=O)O)C(=O)N[C@@H](CC(C)C)C(=O)N[C@@H](CCC(N)=O)C(=O)N[C@@H](CCC(N)=O)C(=O)N[C@@H](Cc1ccc(O)cc1)C(=O)N[C@@H](Cc1ccc(O)cc1)C(=O)N[C@H](C(=O)N[C@@H](CO)C(=O)N[C@@H](CC(C)C)C(=O)N[C@@H](CCCNC(=N)N)C(=O)N[C@@H](Cc1c[nH]cn1)C(=O)N[C@@H](Cc1ccc(O)cc1)C(=O)N[C@@H](Cc1ccc(O)cc1)C(=O)N[C@@H](CC(N)=O)C(=O)N[C@@H](Cc1c[nH]c2ccccc12)C(=O)N[C@@H](CC(C)C)C(=O)N[C@H](C(=O)N[C@@H](CCCNC(=N)N)C(=O)N[C@@H](CCC(N)=O)C(=O)N[C@@H](CCCNC(=N)N)C(=O)N[C@@H](Cc1ccc(O)cc1)C(N)=O)[C@@H](C)O)C(C)C` [Compound 138, N{alpha-4}-(3-methylbutanoyl)-N{epsilon-7}-[2-(2-{2-[2-(2-{2-[(4S)-4-carboxy-4-(17-carboxyheptadecanamido)butanamido]ethoxy}ethoxy)acetamido]ethoxy}ethoxy)acetamido]-[4A,6A,7K,9E,18Q,19Q,22V,28Y,30W,31L]hPYY (4-36)], the Ki was determined as 1.42 nM.
